From publication PMC6600665, “Identification and Characterization of Approved Drugs and Drug-Like Compounds as Covalent Escherichia coli ClpP Inhibitors” (International Journal of Molecular Sciences, 2019)
Where two headings read alike, the source gives them in different places.

Key:
E. coli JW5503 (ΔtolC) = assay: Antibacterial growth inhibition assay in MHB, efflux pump-defective strain; format: cell-based; conditions: Escherichia coli, 24 h, read-out: Growth Inhibition (%)
Procedure: (§1) The potential of hit compounds to interfere with bacterial growth was evaluated in E. coli BW25-113 (wild type) and tolC-deficient strain E. coli JW5503 [34] (obtained from the NBRP-E. coli collection at the National Institute of Genetics, Mishima, Japan). The effect of the compounds on wild-type strain E. coli BW25-113 and the isogenic clpP-deficient E. coli JW0427-1 [34] (coli genetic stock center, New Haven, CT, USA) were measured in the presence of the efflux pump inhibitor Phe-Arg β-naphthylamide dihydrochloride (#P4157, Sigma-Aldrich, USA) at 25 μM. Single colonies of the bacterial strains from Mueller Hinton Agar culture were used to inoculate 5 mL of saline solution. The suspension was transferred into fresh, sterile Mueller Hinton broth (MHB) medium, resulting in a final concentration of 10^6 CFU/mL. Growth assays were carried out in 96-well, flat-bottom, sterile clear plates (#167008, Nunc, VWR, Radnor, PA, USA) and compounds were tested at 50 and 100 μM concentration (2% DMSO). Absorbance at 600 nm was measured using the Multiskan GO or Varioskan LUX plate reader (Thermo Fisher Scientific, Vantaa, Finland) for 24 h at hourly intervals. Between measurements, plates were incubated in a shaking incubator (500 rpm) at 37 °C.

E. coli ClpP [1] = molecular target: T1, E. coli ClpP (Escherichia coli, UniProt P0A6G7); assay: Fluorescence-based E. coli ClpP proteolytic activity assay (Suc-LY-AMC), primary screen and dose-response; format: biochemical; conditions: for E. coli ClpP inhibition [%] in the primary screen: 200 µM
T1 construct: His-tag; made in house; host or cells: E. coli SG1146a
Procedure: Briefly, 25 ng/μL of E. coli ClpP dissolved in a buffer containing 100 mM NaCl, 100 mM 4-(2-hydroxyethyl)-1-piperazineethanesulfonic acid (HEPES) pH 7.5, and 0.05% Brij® 35 were transferred into each well. Test compound addition (final concentration 200 µM) was carried out using an Echo® 550 liquid handling system (Labcyte, Sunnyvale, CA, USA). […] Changes in fluorescence (excitation 350 nm, emission 435 nm) were monitored at 1 min intervals at 30 °C over 1 h using an Infinite M1000 microplate reader (Tecan).
The assay was carried out as described above with increasing concentrations of test compounds. Dose-response experiments were done at least 3 times independently, each in technical triplicates.
Calculation of Z prime (Z’) for HTS assay performance was done according to Zhang et al.. Plates were considered for further analyses if Z’ > 0.6 [26].

E. coli JW0427 (ΔclpP) [2] = assay: Antibacterial growth inhibition assay in MHB, clpP-deficient strain; format: cell-based; conditions: Escherichia coli, 24 h, read-out: Growth Inhibition (%)
Procedure: as §1

[3] = test system: E. coli BW25-113 (wild type); assay: Antibacterial growth inhibition assay in MHB, wild type; format: cell-based; conditions: 24 h; for inhibition at 100 µM: Escherichia coli, read-out: Growth Inhibition (%)
Procedure: as §1

bovine α-chymotrypsin = molecular target: T2, bovine α-chymotrypsin (Bos taurus, UniProt P00766); assay: Serine protease selectivity assay with bovine α-chymotrypsin (Suc-LY-AMC); format: biochemical; conditions: 200 μM compound concentration
T2 construct: purchased Sigma-Aldrich C4129
Procedure: Compound selectivity was assessed using bovine α-chymotrypsin (#C4129, Sigma-Aldrich, St. Louis, MO, USA) at 200 µM. The assay was carried out as described above, except that 1 ng/μL of α-chymotrypsin and 100 μM of Suc-LY-AMC substrate were dissolved in a buffer containing 150 mM NaCl, 10 mM CaCl2, 50 mM Tris-HCl, and 0.05% Brij® 35.

HTC-116 cells = assay: in vitro; format: cell-based
Procedure: (§2) Potential cell toxicity of the tested compounds was evaluated by ATP quantification using the CellTiter-Glo® luminescent cell viability assay (Promega, Madison, WI, USA). […] After incubation, 20 µL of CellTiter-Glo® reagent were added per well and incubated at room temperature in the dark for another 30 min. Luminescence was quantified by an EnVision multi-plate reader (PerkinElmer, Rodgau, Germany).

A549 cells = assay: in vitro; format: cell-based
Procedure: as §2

in vitro = format: cell-based; conditions: human, 48 h incubation, 1:3 dilutions starting from 200 μM
Procedure: as §2

E. coli JW0427 (ΔclpP) [4] = assay: Growth delay under nitric oxide stress (DPTA NONOate) in M9 medium, clpP-deficient strain; format: cell-based; conditions: clpP-deficient E. coli, DPTA NONOate, compared with cells without compound
Procedure: (§3) Assessment of E. coli growth delay in presence of nitric oxide stress was carried out following our recently published protocol, which is an adaptation of the method reported by Robinson and Brynildsen to a 96-well plate format. Fresh MHB medium was inoculated with isolated colonies of E. coli BW25-113 or E. coli JW0427-1, grown on Luria Agar, and left overnight in a shaking incubator (250 rpm) at 37 °C. On the following day, the overnight culture was used to inoculate fresh M9 medium (supplemented with 10 mM glucose) 1:100, and was grown until OD600 ~0.3. Afterwards, the culture was transferred into 96-well, flat-bottom, sterile clear plates (#167008, Nunc, VWR). Bacterial OD600 was adjusted to 0.1 with M9 medium (supplemented with 10 mM glucose). Test compounds were transferred into the 96-well plates, followed by addition of the bacterial culture. Nitric oxide stress was induced by addition of 2 mM DPTA NONOate ((Z)-1-[N-(3-aminopropyl)-N-(3-ammoniopropyl)amino]diazen-1-ium-1,2-diolate, Cayman Chemical, Ann Arbor, MI, USA), dissolved in NaOH (final concentration 0.14 mM). Absorbance measurements (600 nm) were done with a Multiskan GO or Varioskan LUX plate reader (Thermo Fisher Scientific, Finland) at hourly intervals for 24 h. Between measurements, plates were incubated in a shaking incubator (500 rpm) at 37 °C.

E. coli ClpP [5] = molecular target: T1, E. coli ClpP; assay: Surface plasmon resonance binding to immobilized ClpP; conditions: 80 µM, injected over 7 min, 30 min dissociation
Procedure: E. coli ClpP (80 μg/mL) protein was immobilized, using amine coupling (SPR-AS-HCA-03, Bruker Daltonics Inc., Billerica, MA, USA), onto the surface of the sensor chip of a SIERRA SPR-16 instrument (Bruker Daltonics GmbH, Bremen, Germany). ClpP protein was dissolved in acetate at pH 4. The running buffer contained 150 mM NaCl, 10 mM Hepes, 3 mM EDTA, and 0.05% (v/v) Tween-20. The flow rate for protein immobilization was 10 μL/min. Binding experiments were carried out using running buffer with the addition of 0.8% (v/v) of DMSO and 80 µM test substance (flow rate of 20 μL/min for 7 min and up to 30 min of dissociation time). […] SPR data were analyzed using the Analyzer 3 software (Bruker Daltonics GmbH), which includes algorithms for subtracting reference signals and accounting for non-specific interactions between the solvent and the sensor chip surface.

[6] = test system: E. coli BW25-113 (wild type); assay: Growth delay under nitric oxide stress (DPTA NONOate) in M9 medium, wild type; format: cell-based; conditions: WT E. coli, both tested concentrations (50 and 100 μM), M9 minimal medium
Procedure: as §3

MCF-7 cells = assay: in vitro; format: cell-based
Procedure: as §2

[7] = read-out: E. coli ClpP inhibition [%] in the primary screen, primary screen, 200 µM
[8] = read-out: Inhibition (%) at 200 μM E. coli ClpP, 200 μM compound concentration
[9] = E. coli WT, without PAβN, 100 μM, 37 °C, MHB
[10] = A549 cells, read-out: Cytotoxicity A549 IC50
[11] = HTC-116 cells, read-out: Cytotoxicity HTC-116 IC50
[12] = MCF-7 cells, read-out: Cytotoxicity MCF-7 IC50

T1 sequence (P0A6G7 15-207): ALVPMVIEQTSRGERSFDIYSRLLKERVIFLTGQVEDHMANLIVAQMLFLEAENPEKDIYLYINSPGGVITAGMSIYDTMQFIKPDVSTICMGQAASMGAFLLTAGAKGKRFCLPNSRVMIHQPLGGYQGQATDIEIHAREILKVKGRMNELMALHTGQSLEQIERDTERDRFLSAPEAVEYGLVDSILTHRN

SMILES | IC50 (E. coli ClpP [1]) | E. coli ClpP inhibition [%] in the primary screen (E. coli ClpP [1]) | inhibition at 200 µM (E. coli ClpP [1]; [7]) | inhibition at 200 µM (E. coli ClpP [1]; [8]) | inhibition at 100 µM (E. coli JW0427 (ΔclpP) [2]) | Inhibition (%) at 200 μM α-Chymotrypsin (bovine α-chymotrypsin) | inhibition at 200 µM (bovine α-chymotrypsin) | Cytotoxicity HTC-116 Ratio (IC50 cytotoxicity/IC50 ClpP) (HTC-116 cells; HTC-116) | Cytotoxicity A549 Ratio (IC50 cytotoxicity/IC50 ClpP) (A549 cells; A549) | IC50 at 48 h (in vitro; [10]) | IC50 at 48 h (in vitro; [11]) | IC50 at 48 h (in vitro; [12]) | Covalent / irreversible binding to ClpP by SPR (E. coli ClpP [5]) | Bacterial growth in absence of NO• stress [6] | other results
CO[C@@]1(NC(=O)CSCC#N)C(=O)N2C(C(=O)O)=C(CSc3nnnn3C)CS[C@@H]21 [Cefmetazole, cefmetazole] | 3.4 µM | > 90% | 94.5% | 94.5% | 100% | no inhibition | 0% | 1597.06 | 73.53 | 250 µM | 5430 µM | 74.1 µM |  |  | inhibition at 100 µM (E. coli JW5503 (ΔtolC)): 100%; inhibition at 100 µM [3, 9]: 100%
O=c1oc(Cl)c(Cl)c2ccccc12 [3,4-DIC, 3,4-dichloroisocoumarin] | 4.9 µM | > 90% | 98.9% | 98.9% |  | completely inhibited | 101% | 9.2 | 9.12 | 44.7 µM | 45.1 µM | 9.06 µM | covalent binding | small growth delay | Growth delay in presence of nitric oxide stress (E. coli JW0427 (ΔclpP) [4]): did not show any significant effect; Growth Inhibition (%) [3, 9]: did not show any intrinsic antimicrobial activities; Cytotoxicity MCF-7 Ratio (IC50 cytotoxicity/IC50 ClpP) (MCF-7 cells; MCF-7): 1.85
CC(C)C[C@H](NC(=O)[C@H](Cc1ccccc1)NC(=O)c1cnccn1)B(O)O [Bortezomib, bortezomib] | 0.04 µM | > 90% | 100% | 100% | 100% | completely inhibited | 97.8% |  |  |  |  |  | covalent binding | did not show any effect | inhibition at 100 µM [3]: 55%; SPR signal (resonance units, RU) (E. coli ClpP [5]): low change of absolute resonance unit; Cytotoxicity HTC-116 Ratio (IC50 cytotoxicity/IC50 ClpP) (HTC-116 cells): 0.005; Cytotoxicity MCF-7 Ratio (IC50 cytotoxicity/IC50 ClpP) (MCF-7 cells): 1; Cytotoxicity A549 Ratio (IC50 cytotoxicity/IC50 ClpP) (A549 cells): 0.005
